Entries after “also recorded” stand apart in the source; their conditions may differ.
Target: T1, human Nav1.7 (Homo sapiens, UniProt Q15858)
T1 construct: expressed in transfected cells; host or cells: HEK293 cells, transient transfection with Lipofectamine 2000
Experiment: whole-cell patch clamp, human Nav1.7 transiently expressed in HEK 293 cells
Format: cell-based
Excerpt: Figure 2 Inhibitory effect of synthetic μ-TRTX-Hhn1b on Nav1.7 expressed on HEK 293 cells. […] (B) The inhibition of μ-TRTX-Hhn1b on Nav1.7 was dose-dependent. […] Data are plotted as a fraction of the maximum conductance. The voltage-dependence of steady-state inactivation was estimated using a standard double-pulse protocol, in which a 20-ms depolarizing test potential of 0 mV followed a 500-ms prepulse at potentials that ranged from −130 to −10 mV with a 10-mV increment. Cells were held at −100 mV.
A human Nav1.7 channel plasmid (accession No. NM_002977) and a plasmid for green ﬂuorescent protein were transiently transfected into human embryonic kidney 293 (HEK293) cells using Lipofectamine 2000 (Invitrogen, Carlsbad, CA, USA) according to the manufacturer’s instructions. HEK293 cells were grown under standard tissue culture conditions (5% CO2; 37 °C) in DMEM supplemented with 10% FBS. The β1 subunit was cotransfected with the Nav1.7 channel to increase the current density. Cells with green ﬂuorescence were selected for whole-cell patch-clamp recording at 36–72 h after transfection. Patch-clamp experiments were performed at room temperature. Suction pipettes (2.0–3.0 MΩ) were made from borosilicate glass capillary tubes using a two-step vertical micropipette puller. The pipette solution contained (in mM): CsCl 145, MgCl2∙6H2O 4, HEPES 10, EGTA 10, glucose 10, ATP 2 (pH 7.2). The external solution contained (in mM): NaCl 145, KCl 2.5, CaCl2 1.5, MgCl2.6H2O 1.2, HEPES 10, glucose 10 (pH 7.4). Experimental data were collected and analyzed using the program Pulse/Pulsefit 8.0 (HEKA Electronics, Pfalz, Germany). Macroscopic sodium currents were filtered at 5 kHz and digitized at 20 kHz with an EPC-9 patch-clamp amplifier (HEKA Electronics, Pfalz, Germany). Series resistance was kept near 5 MΩ and compensated to 65%–70%; linear capacitative and leakage currents were digitally subtracted using the P/4 protocol.

T1 sequence (Q15858 other isoform, or with tags, fused parts or gaps): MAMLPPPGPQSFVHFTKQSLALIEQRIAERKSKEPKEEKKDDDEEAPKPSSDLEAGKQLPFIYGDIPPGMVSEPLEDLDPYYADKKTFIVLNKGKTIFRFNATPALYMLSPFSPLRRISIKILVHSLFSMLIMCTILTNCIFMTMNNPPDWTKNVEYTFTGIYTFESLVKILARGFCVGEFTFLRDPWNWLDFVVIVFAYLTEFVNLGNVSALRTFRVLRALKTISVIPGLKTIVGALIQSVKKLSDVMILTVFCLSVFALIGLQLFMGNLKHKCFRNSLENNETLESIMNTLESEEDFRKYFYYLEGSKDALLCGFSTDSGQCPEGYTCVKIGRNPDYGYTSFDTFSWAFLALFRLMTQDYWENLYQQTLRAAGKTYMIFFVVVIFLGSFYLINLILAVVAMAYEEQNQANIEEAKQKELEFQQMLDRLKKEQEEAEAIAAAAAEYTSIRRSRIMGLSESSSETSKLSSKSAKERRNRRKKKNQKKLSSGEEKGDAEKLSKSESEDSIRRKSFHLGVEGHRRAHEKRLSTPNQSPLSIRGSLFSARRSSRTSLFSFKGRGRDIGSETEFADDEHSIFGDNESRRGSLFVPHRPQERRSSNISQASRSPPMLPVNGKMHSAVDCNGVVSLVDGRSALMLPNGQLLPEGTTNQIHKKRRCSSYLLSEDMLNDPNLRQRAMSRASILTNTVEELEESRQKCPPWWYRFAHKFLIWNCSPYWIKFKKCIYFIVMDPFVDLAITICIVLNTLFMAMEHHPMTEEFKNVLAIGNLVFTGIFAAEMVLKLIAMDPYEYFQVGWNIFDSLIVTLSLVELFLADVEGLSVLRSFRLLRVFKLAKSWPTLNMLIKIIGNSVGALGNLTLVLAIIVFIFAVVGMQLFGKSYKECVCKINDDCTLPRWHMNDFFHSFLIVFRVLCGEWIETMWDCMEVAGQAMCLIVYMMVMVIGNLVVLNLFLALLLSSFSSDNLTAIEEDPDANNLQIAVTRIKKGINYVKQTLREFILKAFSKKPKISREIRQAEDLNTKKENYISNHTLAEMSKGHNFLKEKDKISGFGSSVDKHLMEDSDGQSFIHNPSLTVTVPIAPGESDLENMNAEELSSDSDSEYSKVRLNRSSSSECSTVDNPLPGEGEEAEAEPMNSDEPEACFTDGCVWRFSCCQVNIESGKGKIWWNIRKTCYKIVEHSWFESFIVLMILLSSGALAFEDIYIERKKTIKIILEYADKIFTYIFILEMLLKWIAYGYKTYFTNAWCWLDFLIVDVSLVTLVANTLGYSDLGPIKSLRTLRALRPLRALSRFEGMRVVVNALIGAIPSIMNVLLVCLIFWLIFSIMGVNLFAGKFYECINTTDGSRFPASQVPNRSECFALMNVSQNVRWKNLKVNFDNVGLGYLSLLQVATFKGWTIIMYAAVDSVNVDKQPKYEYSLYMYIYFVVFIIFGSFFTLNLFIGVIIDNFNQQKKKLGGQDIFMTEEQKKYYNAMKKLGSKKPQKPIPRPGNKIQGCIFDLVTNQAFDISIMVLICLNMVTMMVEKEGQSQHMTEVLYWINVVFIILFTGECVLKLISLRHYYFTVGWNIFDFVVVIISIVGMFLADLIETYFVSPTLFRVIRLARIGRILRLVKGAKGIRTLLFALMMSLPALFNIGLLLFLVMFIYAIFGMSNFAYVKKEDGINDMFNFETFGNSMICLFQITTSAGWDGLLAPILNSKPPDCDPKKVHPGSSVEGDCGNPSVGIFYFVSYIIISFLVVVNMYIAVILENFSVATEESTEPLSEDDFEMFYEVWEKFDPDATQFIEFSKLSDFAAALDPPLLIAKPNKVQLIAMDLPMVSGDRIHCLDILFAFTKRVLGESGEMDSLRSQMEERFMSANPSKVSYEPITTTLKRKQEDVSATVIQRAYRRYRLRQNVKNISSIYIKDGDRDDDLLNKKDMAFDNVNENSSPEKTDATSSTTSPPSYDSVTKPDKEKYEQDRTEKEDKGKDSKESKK
T1 sequence (Q07699 19-218, further chain): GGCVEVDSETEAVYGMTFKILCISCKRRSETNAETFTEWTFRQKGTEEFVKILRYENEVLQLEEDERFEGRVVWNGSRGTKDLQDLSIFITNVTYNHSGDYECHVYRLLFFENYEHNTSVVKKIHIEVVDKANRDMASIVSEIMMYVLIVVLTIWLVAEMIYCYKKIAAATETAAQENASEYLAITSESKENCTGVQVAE

With `CC[C@H](C)[C@H](NC(=O)[C@H](CCC(=O)O)NC(=O)[C@H](Cc1ccc(O)cc1)NC(=O)[C@H](CCCCN)NC(=O)[C@@H]1CSSC[C@@H]2NC(=O)[C@H](CCC(N)=O)NC(=O)[C@H](CC(=O)O)NC(=O)[C@H](CC(N)=O)NC(=O)[C@H](CO)NC(=O)[C@@H]3CCCN3C(=O)[C@H](CC(N)=O)NC(=O)[C@@H]3CSSC[C@H](NC(=O)[C@H](C(C)C)NC(=O)[C@H](CC(C)C)NC(=O)[C@H](CC(N)=O)NC(=O)[C@H](CO)NC(=O)[C@H](CO)NC(=O)[C@H](CCCCN)NC(=O)[C@H](CSSC[C@H](NC(=O)[C@@H](N)CCC(=O)O)C(=O)N[C@@H](CC(C)C)C(=O)NCC(=O)N[C@@H](Cc4ccccc4)C(=O)NCC(=O)N[C@@H](CCCCN)C(=O)NCC(=O)N3)NC2=O)C(=O)N[C@@H](CO)C(=O)N[C@@H](CCCNC(=N)N)C(=O)N[C@@H](CCCCN)C(=O)N[C@@H](Cc2c[nH]cn2)C(=O)N[C@@H](CCCNC(=N)N)C(=O)N[C@@H](Cc2c[nH]c3ccccc23)C(=O)N1)C(N)=O` [μ-TRTX-Hhn1b] the “effect on activation and inactivation of Nav1.7” value (50 nM synthetic peptide) was “did not significantly alter the activation (C) and steady-state inactivation (D) of Nav1.7; also recorded: inhibited the peak current of Nav1.7 without significant alteration of the activation and inactivation kinetics of Nav1.7”, the “half-activation voltage of Nav1.7” value (50 nM synthetic peptide, Boltzmann fit) was −23.0 ± 0.4 mV and the “half-inactivation voltage of Nav1.7” value (50 nM synthetic peptide, steady-state inactivation, Boltzmann fit) was −47.1 ± 0.3 mV. The “τon, time-dependent inhibition of Nav1.7” value (100 nM synthetic peptide, HEK 293 cells) was 20.5 ± 0.3 s, the “inhibitory effect of synthetic peptide compared with native toxin” value (human Nav1.7 in HEK 293 cells) was “same inhibitory effect on human Nav1.7 current transiently expressed in HEK 293 cells as the native toxin” and the IC50 (synthetic peptide, human Nav1.7 + β1 subunit in HEK 293 cells, whole-cell patch clamp, room temperature, 50-ms depolarization from −80 mV to −10 mV, mean ± S.E., five to eight cells, read-out: IC50, inhibition of Nav1.7 current) was roughly 21 nM.

From paper PMC4147587, “Synthesis and Analgesic Effects of μ-TRTX-Hhn1b on Models of Inflammatory and Neuropathic Pain” (Toxins, 2014)
